In ChEMBL document CHEMBL4507258 (2021):

How the values were obtained:
[1] = biological target: 5-hydroxytryptamine receptor 1E (Homo sapiens) (UniProt P28566); conditions: Compound concentration 10.0 uM
[2] = biological target: Cyclin-dependent kinase-like 1 (Homo sapiens) (UniProt Q00532); conditions: Compound concentration 1000.0 nM
[3] = biological target: Serine/threonine-protein kinase N1 (Homo sapiens) (UniProt Q16512); conditions: Compound concentration 1000.0 nM
[4] = biological target: Mitogen-activated protein kinase kinase kinase kinase 3 (Homo sapiens) (UniProt Q8IVH8); conditions: Compound concentration 1000.0 nM
[5] = biological target: AP2-associated protein kinase 1 (Homo sapiens) (UniProt Q2M2I8); conditions: Compound concentration 1000.0 nM
[6] = biological target: Myosin light chain kinase 2, skeletal/cardiac muscle (Homo sapiens) (UniProt Q9H1R3); conditions: Compound concentration 1000.0 nM
[7] = biological target: Non-receptor tyrosine-protein kinase TYK2 (Homo sapiens) (UniProt P29597); conditions: Compound concentration 1000.0 nM
[8] = biological target: Casein kinase I isoform gamma-2 (Homo sapiens) (UniProt P78368); conditions: Compound concentration 1000.0 nM
[9] = biological target: Phosphatidylinositol 5-phosphate 4-kinase type-2 gamma (Homo sapiens) (UniProt Q8TBX8); conditions: Compound concentration 1000.0 nM
[10] = biological target: Serine/threonine-protein kinase TAO3 (Homo sapiens) (UniProt Q9H2K8); conditions: Compound concentration 1000.0 nM
[11] = biological target: Tyrosine-protein kinase Fgr (Homo sapiens) (UniProt P09769); conditions: Compound concentration 1000.0 nM
[12] = biological target: Serine/threonine-protein kinase PLK1 (Homo sapiens) (UniProt P53350); conditions: Compound concentration 1000.0 nM
[13] = biological target: Platelet-derived growth factor receptor beta (Homo sapiens) (UniProt P09619); conditions: Compound concentration 1000.0 nM
[14] = biological target: Phosphorylase b kinase regulatory subunit alpha, liver isoform (Homo sapiens) (UniProt P46019); conditions: Compound concentration 1000.0 nM
[15] = biological target: T1, 5-hydroxytryptamine receptor 3A (Homo sapiens) (UniProt P46098); conditions: Compound concentration 10.0 uM
T1 sequence (whole entry): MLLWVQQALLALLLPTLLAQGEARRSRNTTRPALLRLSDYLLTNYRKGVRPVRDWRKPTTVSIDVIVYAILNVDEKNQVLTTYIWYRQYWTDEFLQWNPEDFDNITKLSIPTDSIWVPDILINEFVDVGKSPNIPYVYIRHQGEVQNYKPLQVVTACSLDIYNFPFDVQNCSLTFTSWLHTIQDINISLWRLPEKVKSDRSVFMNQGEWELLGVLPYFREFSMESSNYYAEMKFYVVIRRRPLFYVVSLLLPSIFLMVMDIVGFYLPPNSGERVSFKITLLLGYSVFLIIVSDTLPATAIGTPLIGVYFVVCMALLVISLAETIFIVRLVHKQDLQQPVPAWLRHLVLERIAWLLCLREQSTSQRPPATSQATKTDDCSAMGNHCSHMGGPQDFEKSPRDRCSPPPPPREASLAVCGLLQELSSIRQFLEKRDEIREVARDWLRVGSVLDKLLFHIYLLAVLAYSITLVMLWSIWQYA

[16] = biological target: Serine/threonine-protein kinase 33 (Homo sapiens) (UniProt Q9BYT3); conditions: Compound concentration 1000.0 nM
[17] = biological target: Dual specificity protein kinase TTK (Homo sapiens) (UniProt P33981); conditions: Compound concentration 1000.0 nM
[18] = biological target: TGF-beta receptor type-1 (Homo sapiens) (UniProt P36897); conditions: Compound concentration 1000.0 nM
[19] = biological target: Ephrin type-A receptor 5 (Homo sapiens) (UniProt P54756); conditions: Compound concentration 1000.0 nM
[20] = biological target: RAC-alpha serine/threonine-protein kinase (Homo sapiens) (UniProt P31749); conditions: Compound concentration 1000.0 nM
[21] = biological target: Serine/threonine-protein kinase Nek9 (Homo sapiens) (UniProt Q8TD19); conditions: Compound concentration 1000.0 nM
[22] = system: Tyrosine-protein kinase ABL1 (Homo sapiens), P00519 [F317L]; conditions: Compound concentration 1000.0 nM
[23] = biological target: Tyrosine-protein kinase Lyn (Homo sapiens) (UniProt P07948); conditions: Compound concentration 1000.0 nM
[24] = biological target: MAP kinase-activated protein kinase 5 (Homo sapiens) (UniProt Q8IW41); conditions: Compound concentration 1000.0 nM
[25] = biological target: Tyrosine-protein kinase JAK1 (Homo sapiens) (UniProt P23458); conditions: Compound concentration 1000.0 nM
[26] = biological target: Mitogen-activated protein kinase kinase kinase 11 (Homo sapiens) (UniProt Q16584); conditions: Compound concentration 1000.0 nM
[27] = system: ALK tyrosine kinase receptor (Homo sapiens), Q9UM73 [L1196M]; conditions: Compound concentration 1000.0 nM
[28] = biological target: Serine/threonine-protein kinase haspin (Homo sapiens) (UniProt Q8TF76); conditions: Compound concentration 1000.0 nM
[29] = biological target: cGMP-dependent protein kinase 2 (Homo sapiens) (UniProt Q13237); conditions: Compound concentration 1000.0 nM
[30] = biological target: Mitogen-activated protein kinase kinase kinase 1 (Homo sapiens) (UniProt Q13233); conditions: Compound concentration 1000.0 nM
[31] = biological target: Serine/threonine-protein kinase 10 (Homo sapiens) (UniProt O94804); conditions: Compound concentration 1000.0 nM
[32] = biological target: Leukocyte tyrosine kinase receptor (Homo sapiens) (UniProt P29376); conditions: Compound concentration 1000.0 nM
[33] = biological target: Serine/threonine-protein kinase 32C (Homo sapiens) (UniProt Q86UX6); conditions: Compound concentration 1000.0 nM
[34] = biological target: Serine/threonine-protein kinase NIM1 (Homo sapiens) (UniProt Q8IY84); conditions: Compound concentration 1000.0 nM
[35] = biological target: Histamine H1 receptor (Homo sapiens, UniProt P35367); conditions: Compound concentration 10.0 uM
[36] = biological target: Serine/threonine-protein kinase Sgk1 (Homo sapiens) (UniProt O00141); conditions: Compound concentration 1000.0 nM
[37] = biological target: Tyrosine-protein kinase ITK/TSK (Homo sapiens) (UniProt Q08881); conditions: Compound concentration 1000.0 nM
[38] = system: Tyrosine-protein kinase ABL1 (Homo sapiens), P00519 [M351T]; conditions: Compound concentration 1000.0 nM
[39] = biological target: Ribosomal protein S6 kinase alpha-3 (Homo sapiens) (UniProt P51812); conditions: Compound concentration 1000.0 nM
Sequence of Ribosomal protein S6 kinase alpha-3 (Homo sapiens) (P51812 whole entry): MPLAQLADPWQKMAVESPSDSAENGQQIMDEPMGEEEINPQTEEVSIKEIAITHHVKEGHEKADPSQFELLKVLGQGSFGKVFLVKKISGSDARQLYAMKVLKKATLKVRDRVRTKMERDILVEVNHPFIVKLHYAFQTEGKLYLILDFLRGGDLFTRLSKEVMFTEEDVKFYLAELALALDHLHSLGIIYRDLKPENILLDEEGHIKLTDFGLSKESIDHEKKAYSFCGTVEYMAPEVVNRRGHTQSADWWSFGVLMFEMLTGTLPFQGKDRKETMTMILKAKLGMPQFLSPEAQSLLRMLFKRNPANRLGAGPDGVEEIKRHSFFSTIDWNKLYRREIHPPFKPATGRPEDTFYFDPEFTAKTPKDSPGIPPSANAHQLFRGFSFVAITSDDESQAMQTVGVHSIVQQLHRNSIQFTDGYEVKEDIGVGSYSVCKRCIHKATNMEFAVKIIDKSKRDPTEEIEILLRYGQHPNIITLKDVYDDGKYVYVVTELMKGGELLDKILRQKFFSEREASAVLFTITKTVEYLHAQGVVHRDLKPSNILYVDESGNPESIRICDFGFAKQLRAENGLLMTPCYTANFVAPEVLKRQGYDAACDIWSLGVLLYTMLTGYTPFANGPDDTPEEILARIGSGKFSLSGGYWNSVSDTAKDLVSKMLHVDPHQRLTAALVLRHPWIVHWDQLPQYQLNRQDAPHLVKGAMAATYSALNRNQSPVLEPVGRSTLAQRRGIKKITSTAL

Sequence of Mitogen-activated protein kinase kinase kinase 11 (Homo sapiens) (Q16584 whole entry, looked up): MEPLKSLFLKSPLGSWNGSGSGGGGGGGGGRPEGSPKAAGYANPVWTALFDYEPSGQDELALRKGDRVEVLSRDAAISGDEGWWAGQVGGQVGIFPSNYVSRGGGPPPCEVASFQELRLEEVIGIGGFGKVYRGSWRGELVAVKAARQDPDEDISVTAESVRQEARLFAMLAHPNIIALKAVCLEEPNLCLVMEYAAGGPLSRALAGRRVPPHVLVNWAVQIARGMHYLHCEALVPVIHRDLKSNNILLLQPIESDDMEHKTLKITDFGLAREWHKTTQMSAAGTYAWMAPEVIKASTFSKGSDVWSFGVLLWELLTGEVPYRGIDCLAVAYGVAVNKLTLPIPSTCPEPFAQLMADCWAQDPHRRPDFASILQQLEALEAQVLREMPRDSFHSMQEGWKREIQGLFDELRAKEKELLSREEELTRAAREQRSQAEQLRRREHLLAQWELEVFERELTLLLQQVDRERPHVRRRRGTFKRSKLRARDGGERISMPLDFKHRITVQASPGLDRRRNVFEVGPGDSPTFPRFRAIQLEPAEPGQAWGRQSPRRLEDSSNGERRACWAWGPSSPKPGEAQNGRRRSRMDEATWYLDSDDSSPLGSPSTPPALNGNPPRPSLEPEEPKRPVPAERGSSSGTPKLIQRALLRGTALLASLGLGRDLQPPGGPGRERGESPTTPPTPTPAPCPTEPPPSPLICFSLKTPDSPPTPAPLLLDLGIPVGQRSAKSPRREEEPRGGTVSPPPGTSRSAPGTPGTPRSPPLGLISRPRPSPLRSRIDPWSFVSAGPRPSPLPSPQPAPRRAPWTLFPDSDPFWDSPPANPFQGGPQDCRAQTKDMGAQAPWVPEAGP
Sequence of Serine/threonine-protein kinase haspin (Homo sapiens) (Q8TF76 whole entry): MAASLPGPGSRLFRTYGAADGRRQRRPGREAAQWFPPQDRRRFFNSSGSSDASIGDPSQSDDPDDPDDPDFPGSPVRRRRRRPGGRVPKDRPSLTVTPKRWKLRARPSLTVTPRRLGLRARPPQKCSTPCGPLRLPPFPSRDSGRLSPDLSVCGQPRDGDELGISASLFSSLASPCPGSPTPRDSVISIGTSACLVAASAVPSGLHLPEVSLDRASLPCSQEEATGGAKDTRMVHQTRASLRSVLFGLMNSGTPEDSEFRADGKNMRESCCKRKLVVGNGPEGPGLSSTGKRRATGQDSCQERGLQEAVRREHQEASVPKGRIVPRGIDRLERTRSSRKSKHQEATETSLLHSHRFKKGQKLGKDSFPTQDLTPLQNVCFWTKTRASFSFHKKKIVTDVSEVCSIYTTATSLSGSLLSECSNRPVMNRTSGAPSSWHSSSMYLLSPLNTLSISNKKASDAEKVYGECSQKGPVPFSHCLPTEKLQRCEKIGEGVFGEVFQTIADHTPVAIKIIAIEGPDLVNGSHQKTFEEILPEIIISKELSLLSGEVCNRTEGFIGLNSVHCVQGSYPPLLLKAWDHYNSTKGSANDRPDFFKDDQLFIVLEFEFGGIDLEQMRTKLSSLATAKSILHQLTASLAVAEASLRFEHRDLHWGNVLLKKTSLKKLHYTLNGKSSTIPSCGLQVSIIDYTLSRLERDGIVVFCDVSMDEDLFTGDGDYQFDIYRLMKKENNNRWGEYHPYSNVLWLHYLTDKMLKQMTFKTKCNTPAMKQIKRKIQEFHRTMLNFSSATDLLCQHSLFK
Sequence of 5-hydroxytryptamine receptor 1E (Homo sapiens) (P28566 whole entry): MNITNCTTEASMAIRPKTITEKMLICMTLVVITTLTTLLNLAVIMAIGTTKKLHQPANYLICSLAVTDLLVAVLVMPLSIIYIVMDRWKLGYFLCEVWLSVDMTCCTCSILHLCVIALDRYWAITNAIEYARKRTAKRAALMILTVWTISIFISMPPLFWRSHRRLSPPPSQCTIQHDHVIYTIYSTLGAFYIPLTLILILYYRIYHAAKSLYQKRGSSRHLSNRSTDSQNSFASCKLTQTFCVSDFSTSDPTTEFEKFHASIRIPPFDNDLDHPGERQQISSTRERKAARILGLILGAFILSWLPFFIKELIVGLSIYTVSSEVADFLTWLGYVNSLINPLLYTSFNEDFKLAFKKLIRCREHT
Sequence of MAP kinase-activated protein kinase 5 (Homo sapiens) (Q8IW41 whole entry): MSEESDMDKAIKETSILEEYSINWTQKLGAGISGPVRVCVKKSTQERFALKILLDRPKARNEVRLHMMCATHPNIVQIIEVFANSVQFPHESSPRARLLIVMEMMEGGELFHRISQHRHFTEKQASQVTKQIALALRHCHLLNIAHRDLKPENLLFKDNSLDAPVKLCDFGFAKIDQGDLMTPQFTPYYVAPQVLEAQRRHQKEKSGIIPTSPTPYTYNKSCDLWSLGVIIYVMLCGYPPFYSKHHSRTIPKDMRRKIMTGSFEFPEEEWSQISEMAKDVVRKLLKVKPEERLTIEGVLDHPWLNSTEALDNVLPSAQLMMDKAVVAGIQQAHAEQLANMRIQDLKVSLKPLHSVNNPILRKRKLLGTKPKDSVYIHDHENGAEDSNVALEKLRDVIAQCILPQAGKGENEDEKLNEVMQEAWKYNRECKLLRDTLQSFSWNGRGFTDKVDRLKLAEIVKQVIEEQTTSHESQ
Sequence of ALK tyrosine kinase receptor (Homo sapiens), Q9UM73 [L1196M] (Q9UM73 whole entry L1196M, looked up): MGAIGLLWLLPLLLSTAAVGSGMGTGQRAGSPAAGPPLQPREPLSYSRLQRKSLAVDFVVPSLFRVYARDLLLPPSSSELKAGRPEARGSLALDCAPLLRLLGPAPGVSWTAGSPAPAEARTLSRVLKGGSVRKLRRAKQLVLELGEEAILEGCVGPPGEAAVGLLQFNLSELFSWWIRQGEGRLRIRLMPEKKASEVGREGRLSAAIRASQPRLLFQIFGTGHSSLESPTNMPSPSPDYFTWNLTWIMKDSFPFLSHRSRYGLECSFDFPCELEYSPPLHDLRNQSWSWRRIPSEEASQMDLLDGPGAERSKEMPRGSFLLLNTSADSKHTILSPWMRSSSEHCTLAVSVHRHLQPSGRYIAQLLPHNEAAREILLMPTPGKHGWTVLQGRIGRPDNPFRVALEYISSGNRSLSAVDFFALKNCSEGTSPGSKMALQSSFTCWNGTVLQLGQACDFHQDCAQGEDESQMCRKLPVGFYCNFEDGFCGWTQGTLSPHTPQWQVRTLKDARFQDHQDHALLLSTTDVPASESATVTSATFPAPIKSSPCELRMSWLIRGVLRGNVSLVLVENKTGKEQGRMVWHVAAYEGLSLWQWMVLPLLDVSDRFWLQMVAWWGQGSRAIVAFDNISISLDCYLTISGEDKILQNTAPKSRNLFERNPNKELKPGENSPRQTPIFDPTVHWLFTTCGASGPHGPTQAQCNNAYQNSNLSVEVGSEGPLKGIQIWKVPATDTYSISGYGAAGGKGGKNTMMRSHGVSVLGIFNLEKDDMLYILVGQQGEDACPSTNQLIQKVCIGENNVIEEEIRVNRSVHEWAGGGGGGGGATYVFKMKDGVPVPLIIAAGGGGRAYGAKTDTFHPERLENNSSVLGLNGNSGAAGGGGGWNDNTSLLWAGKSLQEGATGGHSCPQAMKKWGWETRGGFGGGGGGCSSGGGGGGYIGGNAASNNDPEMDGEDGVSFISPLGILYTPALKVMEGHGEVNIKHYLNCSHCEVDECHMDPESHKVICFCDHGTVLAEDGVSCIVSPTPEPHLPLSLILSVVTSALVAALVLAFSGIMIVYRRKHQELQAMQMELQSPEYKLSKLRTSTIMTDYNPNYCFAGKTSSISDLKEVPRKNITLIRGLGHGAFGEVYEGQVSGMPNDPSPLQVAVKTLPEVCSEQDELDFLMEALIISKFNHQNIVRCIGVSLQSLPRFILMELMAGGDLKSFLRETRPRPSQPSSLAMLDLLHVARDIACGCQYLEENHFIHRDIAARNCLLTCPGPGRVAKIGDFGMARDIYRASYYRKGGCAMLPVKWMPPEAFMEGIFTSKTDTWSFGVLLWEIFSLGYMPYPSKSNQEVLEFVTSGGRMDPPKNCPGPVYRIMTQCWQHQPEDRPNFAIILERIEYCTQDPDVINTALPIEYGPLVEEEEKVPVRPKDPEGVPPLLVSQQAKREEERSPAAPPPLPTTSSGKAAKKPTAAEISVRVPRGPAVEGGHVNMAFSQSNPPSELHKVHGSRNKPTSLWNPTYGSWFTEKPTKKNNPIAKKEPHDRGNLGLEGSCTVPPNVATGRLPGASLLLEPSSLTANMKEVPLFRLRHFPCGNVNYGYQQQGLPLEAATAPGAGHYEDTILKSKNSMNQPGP

SMILES	inhibition [1]	residual activity [2]	residual activity [3]	residual activity [4]	residual activity [5]	residual activity [6]	residual activity [7]	residual activity [8]	residual activity [9]	residual activity [10]	residual activity [11]	residual activity [12]	residual activity [13]	residual activity [14]	inhibition [15]	residual activity [16]	residual activity [17]	residual activity [18]	residual activity [19]	residual activity [20]	other results
CCCCN(CCCC)C(=O)CN1C[C@@H](c2cc(OC)c3c(c2)OCO3)[C@H](C(=O)O)[C@H]1CC(C)(C)CCC [A-545]	27.1%	74.9%	85%	94.1%	100%	100%	100%	96.3%	80.7%	67.9%	92.4%	100%	99%	100%	2.23%	100%	100%	100%	81.9%	85.7%	residual activity [21]: 84.2%; residual activity [22]: 93.5%; residual activity [23]: 75.1%; residual activity [24]: 100%; residual activity [25]: 100%; residual activity [26]: 100%; residual activity [27]: 100%; residual activity [28]: 100%; residual activity [29]: 100%; residual activity [30]: 100%; residual activity [31]: 82.4%; residual activity [32]: 94.1%; residual activity [33]: 100%; residual activity [34]: 100%; inhibition [35]: 47.4%; residual activity [36]: 77.6%; residual activity [37]: 100%; residual activity [38]: 100%; residual activity [39]: 85.4%
CCCCN(CCCC)C(=O)CN1C[C@H](c2cc(OC)c3c(c2)OCO3)[C@@H](C(=O)O)[C@@H]1CC(C)(C)CCC [ABT-546]	3.64%	100%	100%	100%	100%	100%	100%	100%	100%	63.2%	100%	73.5%	100%	100%	14.7%	100%	100%	98.6%	100%	100%	residual activity [21]: 100%; residual activity [22]: 96.7%; residual activity [23]: 100%; residual activity [24]: 67.9%; residual activity [25]: 84.7%; residual activity [26]: 100%; residual activity [27]: 100%; residual activity [28]: 75.8%; residual activity [29]: 100%; residual activity [30]: 100%; residual activity [31]: 100%; residual activity [32]: 100%; residual activity [33]: 100%; residual activity [34]: 100%; inhibition [35]: 53.6%; residual activity [36]: 69.2%; residual activity [37]: 100%; residual activity [38]: 96.9%; residual activity [39]: 54.9%
